Reference: patent US9107926B2, “Mutant selectivity and combinations of a phosphoinositide 3-kinase inhibitor compound and chemotherapeutic agents for the treatment of cancer” (Genentech, Inc., priority 2012, dated 2015)

How the values were obtained:
HCC-1419 = assay: CellTiter-Glo cell proliferation assay; assay type: cell-based; details: Homo sapiens, HCC1419, Breast, WT
HDQ-P1 = assay: CellTiter-Glo cell proliferation assay; assay type: cell-based; details: Homo sapiens, Breast, WT
Experimental: (§1) Cell Culture Medium: RPMI or DMEM high glucose, 10% Fetal Bovine Serum, 2 mM L-Glutamine, P/S. Incubate O/N (overnight) at 37° C., 5% CO2.
(§2) Drug Addition to Cells, Cell Plate (1:10 dilution): Add 6 μl of media+compound directly to cells (54 μl of media on the cells already). Incubate 3 days at 37° C., 5% CO2 in an incubator that will not be opened often.
(§3) Day 5—Develop Plates, Thaw Cell Titer Glo Buffer at room temperature: Remove Cell Plates from 37° C. and equilibrate to room temperature for about 30 minutes. Add Cell Titer-Glo® Buffer to Cell Titer-Glo® Substrate (bottle to bottle). Add 30 μl Cell Titer-Glo® Reagent (Promega cat.#G7572) to each well of cells. Place on plate shaker for about 30 minutes. Read luminescence on Analyst HT Plate Reader (half second per well).

[1] = test system: SW48 PIK3CA E545K knock-in mutant subclone; assay: four day CellTiter-Glo viability assay, SW48 isogenic cell line set; details: Homo sapiens, SW48, 96 h, read-out: Viability EC50
Excerpt: SW48 parental cells and knock-in mutant subclones harboring common PIK3CA hotspot mutations E545K or H1047R were obtained from Horizon Discovery.

[2] = test system: MCF-7 breast tumor xenografts; assay: In vivo mouse tumor xenograft efficacy; parameters: species or system mice
Experimental: Fulvestrant was dosed subcutaneously with 5 mg of drug once a week (qw) for 3 weeks.
Paclitaxel was dosed intravenously every 4 days for 5 cycles with 7.5 mg/kg of drug.
Xenografts were initiated with cancer cells. […] Volume was calculated using the formula: […]

SW1573 = assay: CellTiter-Glo cell proliferation assay; assay type: cell-based; details: Homo sapiens, Lung(NSCLC), K-RAS
PI3K alpha H1047R mutant = PI3K alpha H1047R mutant (Homo sapiens, UniProt P42336, H1047R); details: relative to PI3K alpha
Experimental: After an incubation time of 30 minutes at room temperature, the reactions were stopped by the addition of GRP-1 and PIP3-TAMRA probe (Echelon-Inc., Salt Lake City, Utah.) 100 nM and 5 nM final concentrations respectively. Read with standard cut-off filters for the rhodamine fluorophore (λex=530 nm; λem=590 nm) in 384-well black low volume Proxiplates® (PerkinElmer, Wellesley, Mass.) Fluorescence polarization values were plotted as a function of the protein concentration. EC50 values were obtained by fitting the data to a four-parameter equation using KaleidaGraph® software (Synergy software, Reading, Pa.). This experiment also establishes the appropriate protein concentration to use in subsequent competition experiments with inhibitors.
After an incubation time of 30 minutes at room temperature, the reactions were stopped by the addition of GRP-1 and PIP3-TAMRA probe (Echelon-Inc., Salt Lake City, Utah.) 100 nM and 5 nM final concentrations respectively.
The compound was serially diluted in 100% DMSO. The kinase reaction was incubated for 1 h at room temperature, and the reaction was terminated by the addition of PBS. IC50 values were subsequently determined using sigmoidal dose-response curve fit (variable slope).

H417 = assay: CellTiter-Glo cell proliferation assay; assay type: cell-based; details: Homo sapiens, NCI-H417, Lung(SC), Helical-HET.546Q > K, HOM.391I > M
MCF7-neo/HER2 = assay: CellTiter-Glo cell proliferation assay; assay type: cell-based; details: Breast, Helical-HET.545E > K
Experimental: as §1, §2, §3

A427 = assay: CellTiter-Glo cell proliferation assay; assay type: cell-based; details: Homo sapiens, A-427, Lung(NSCLC), K-RAS
MDST8 = assay: CellTiter-Glo cell proliferation assay; assay type: cell-based; details: Colon, PTEN/B-Raf
H358 = assay: CellTiter-Glo cell proliferation assay; assay type: cell-based; details: Homo sapiens, NCI-H358, Lung(NSCLC), K-RAS
CAL120 = assay: CellTiter-Glo cell proliferation assay; assay type: cell-based; details: Homo sapiens, CAL-120, Breast, WT
Experimental: as §1, §2, §3

CAMA-1 = assay: CellTiter-Glo cell proliferation assay; assay type: cell-based; details: Homo sapiens, Breast, PTEN*
MFM223 = assay: CellTiter-Glo cell proliferation assay; assay type: cell-based; details: Homo sapiens, MFM-223, Breast, Kinase-HET.1047H > R, HET.350D > N
Experimental: as §1, §2, §3

HCC-70 = assay: CellTiter-Glo cell proliferation assay; assay type: cell-based; details: Homo sapiens, HCC70, Breast, PTEN
SKOV3 = assay: CellTiter-Glo cell proliferation assay; assay type: cell-based; details: Homo sapiens, SK-OV-3, Ovarian, Kinase-HET.1047H > R, HET.350D > N
Experimental: as §1, §2, §3

cancer cell lines = assay: cell proliferation assays across cancer cell lines (FIGS. 1-3, 12); assay type: cell-based
Excerpt: EC50 values were established for the experiments.

Calu-6 = assay: CellTiter-Glo cell proliferation assay; assay type: cell-based; details: Homo sapiens, Lung(NSCLC), K-RAS
HOP18 = assay: CellTiter-Glo cell proliferation assay; assay type: cell-based; details: Homo sapiens, HOP-18, Lung(NSCLC), K-RAS
EFO21 = assay: CellTiter-Glo cell proliferation assay; assay type: cell-based; details: Homo sapiens, EFO-21, Ovarian, PTEN
IPC298 = assay: CellTiter-Glo cell proliferation assay; assay type: cell-based; details: Homo sapiens, IPC-298, Melanoma, NRAS Q61L
888-MEL = assay: CellTiter-Glo cell proliferation assay; assay type: cell-based; details: Homo sapiens, Melanoma, B-Raf
Detroit562 = assay: CellTiter-Glo cell proliferation assay; assay type: cell-based; details: Homo sapiens, Detroit 562, Head/Neck, Kinase-H1047R
T47D = assay: CellTiter-Glo cell proliferation assay; assay type: cell-based; details: Homo sapiens, Breast, Kinase-HET.1047H > R, HET.350D > N
Experimental: as §1, §2, §3

KP4x1 = assay: CellTiter-Glo cell proliferation assay; assay type: cell-based; details: Pancreatic, K-RAS
INK-134 = assay: CellTiter-Glo cell proliferation assay; assay type: cell-based; details: Glioma, Helical-HET.545E > D, HET.1043M > I
[3] = test system: Endocrine-resistant MCF7-ARO cells; assay: 4 day CellTiter-Glo assay in endocrine resistant cells; assay type: cell-based, human; details: obtained by letrozole dose escalation over about 4 months
H1703 = assay: CellTiter-Glo cell proliferation assay; assay type: cell-based; details: Homo sapiens, NCI-H1703, Lung(NSCLC), WT
LXFL-529 = assay: CellTiter-Glo cell proliferation assay; assay type: cell-based; details: Homo sapiens, Lung(NSCLC), Helical-HET.542E > K
H292 = assay: CellTiter-Glo cell proliferation assay; assay type: cell-based; details: Homo sapiens, NCI-H292, Lung(NSCLC), K-RAS
HCC-202 = assay: CellTiter-Glo cell proliferation assay; assay type: cell-based; details: HCC202, Breast, Helical-HET.545E > K, HET.866L > F, HET.391I > M
KPL4 = assay: CellTiter-Glo cell proliferation assay; assay type: cell-based; details: Breast, Kinase-HET.1047H > R, HET.350D > N
Experimental: as §1, §2, §3

OVCAR3 = assay: CellTiter-Glo cell proliferation assay; assay type: cell-based; details: Homo sapiens, OVCAR-3, Ovarian, WT
H522 = assay: CellTiter-Glo cell proliferation assay; assay type: cell-based; details: Homo sapiens, NCI-H522, Lung(NSCLC), WT
A2058 = assay: CellTiter-Glo cell proliferation assay; assay type: cell-based; details: Homo sapiens, Melanoma, PTEN/B-Raf
LS-180 = assay: CellTiter-Glo cell proliferation assay; assay type: cell-based; details: Homo sapiens, LS180, Colon, KRAS/HET.1047H > R
HCC-1143 = assay: CellTiter-Glo cell proliferation assay; assay type: cell-based; details: Homo sapiens, HCC1143, Breast, WT

PI3K alpha H1047R mutant, sequence (P42336 whole entry H1047R): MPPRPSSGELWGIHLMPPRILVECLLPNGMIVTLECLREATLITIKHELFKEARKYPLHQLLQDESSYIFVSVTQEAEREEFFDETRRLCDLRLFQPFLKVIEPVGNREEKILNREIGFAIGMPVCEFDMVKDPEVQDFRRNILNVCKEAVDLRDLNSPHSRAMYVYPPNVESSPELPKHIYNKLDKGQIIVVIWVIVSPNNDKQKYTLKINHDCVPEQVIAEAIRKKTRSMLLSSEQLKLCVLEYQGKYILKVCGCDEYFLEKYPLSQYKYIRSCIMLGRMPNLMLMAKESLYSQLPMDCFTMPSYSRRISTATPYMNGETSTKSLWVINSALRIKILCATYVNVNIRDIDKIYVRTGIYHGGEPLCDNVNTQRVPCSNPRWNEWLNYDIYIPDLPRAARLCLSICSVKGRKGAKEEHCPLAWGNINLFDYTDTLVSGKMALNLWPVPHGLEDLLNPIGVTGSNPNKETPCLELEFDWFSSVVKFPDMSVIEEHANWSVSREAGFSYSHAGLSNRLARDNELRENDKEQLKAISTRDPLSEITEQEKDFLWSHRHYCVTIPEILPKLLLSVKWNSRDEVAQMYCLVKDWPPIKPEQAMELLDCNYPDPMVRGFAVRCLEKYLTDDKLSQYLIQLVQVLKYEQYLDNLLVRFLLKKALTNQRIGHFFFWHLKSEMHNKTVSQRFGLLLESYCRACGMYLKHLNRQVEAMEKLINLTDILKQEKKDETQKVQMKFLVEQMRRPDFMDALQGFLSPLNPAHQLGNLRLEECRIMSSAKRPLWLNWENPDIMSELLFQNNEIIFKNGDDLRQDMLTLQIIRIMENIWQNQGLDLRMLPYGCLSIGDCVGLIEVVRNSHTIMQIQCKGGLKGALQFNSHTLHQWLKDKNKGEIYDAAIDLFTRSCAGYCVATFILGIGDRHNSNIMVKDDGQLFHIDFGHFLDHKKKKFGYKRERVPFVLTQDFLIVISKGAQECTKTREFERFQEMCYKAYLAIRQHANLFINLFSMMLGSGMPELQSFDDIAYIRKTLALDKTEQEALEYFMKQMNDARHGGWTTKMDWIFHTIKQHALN
PI3K alpha H1047R mutant, sequence (P27986 whole entry partner): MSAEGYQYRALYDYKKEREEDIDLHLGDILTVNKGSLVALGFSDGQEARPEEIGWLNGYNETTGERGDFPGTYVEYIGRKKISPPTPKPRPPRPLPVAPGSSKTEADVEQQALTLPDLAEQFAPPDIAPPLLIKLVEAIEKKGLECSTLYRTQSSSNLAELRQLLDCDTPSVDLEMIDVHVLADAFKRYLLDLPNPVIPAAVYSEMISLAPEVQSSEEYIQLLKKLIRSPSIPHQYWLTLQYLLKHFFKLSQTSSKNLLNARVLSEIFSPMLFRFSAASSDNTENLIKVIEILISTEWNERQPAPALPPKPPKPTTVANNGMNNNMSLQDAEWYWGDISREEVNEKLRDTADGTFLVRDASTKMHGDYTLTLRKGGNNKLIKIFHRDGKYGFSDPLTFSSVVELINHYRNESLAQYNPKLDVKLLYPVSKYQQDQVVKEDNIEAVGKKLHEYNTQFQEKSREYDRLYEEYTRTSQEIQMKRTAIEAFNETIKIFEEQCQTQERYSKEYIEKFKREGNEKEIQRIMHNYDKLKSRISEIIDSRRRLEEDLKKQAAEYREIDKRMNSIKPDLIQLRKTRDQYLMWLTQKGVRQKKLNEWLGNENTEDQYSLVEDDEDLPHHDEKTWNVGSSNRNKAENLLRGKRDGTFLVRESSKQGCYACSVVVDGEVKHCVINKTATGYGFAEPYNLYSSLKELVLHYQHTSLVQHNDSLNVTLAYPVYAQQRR

Structure (SMILES): Cc1nc(-c2cn3c(n2)-c2ccc(-c4cnn(C(C)(C)C(N)=O)c4)cc2OCC3)n(C(C)C)n1 [GDC-0032, 2-(4-(2-(1-isopropyl-3-methyl-1H-1,2,4-triazol-5-yl)-5,6-dihydrobenzo[f]imidazo[1,2-d][1,4]oxazepin-9-yl)-1H-pyrazol-1-yl)-2-methylpropanamide]
- EC50 (HCC-1419): 46 nM
- EC50 (HDQ-P1): 258 nM
- EC50 [1]: 5 nM
- tumor volume change ([2]; PO daily (QD), 21 days, nude mice): dose-dependent decrease in tumor volume
- tumor response ([2]; all doses of GDC-0032 tested, versus vehicle): Increased tumor regressions
- EC50 (SW1573): 285 nM
- PI3K alpha H1047R mutant (PI3K alpha H1047R mutant): 0.4x
- EC50 (H417): 1280 nM
- EC50 (MCF7-neo/HER2): 178 nM
- EC50 (A427): 10 µM
- EC50 (MDST8): 4.01 µM
- EC50 (H358): 220 nM
- EC50 (CAL120): 3.84 µM
- EC50 (CAMA-1): 5.62 µM
- EC50 (MFM223): 211 nM
- EC50 (HCC-70): 43 nM
- EC50 (SKOV3): 76 nM
- sensitivity of cancer cell lines with HER2 amplification versus those without HER2 amplification (cancer cell lines; EC50, cell proliferation assays): about 44 times
- potency against PIK3CA mutant and HER2+ cells (comparison) (cancer cell lines; FIGS. 1A, 1B, 2A, 2B): more potent against PIK3CA mutant cells and HER2+ breast cancer cells than GDC-0941
- EC50 (Calu-6): 10 µM
- EC50 (HOP18): 77 nM
- EC50 (EFO21): 10 µM
- EC50 (IPC298): 10 µM
- EC50 (888-MEL): 10 µM
- EC50 (Detroit562): 58 nM
- EC50 (T47D): 45 nM
- EC50 (KP4x1): 2940 nM
- EC50 (INK-134): 976 nM
- sensitivity of endocrine-resistant cells [3]: sensitive to GDC-0032
- EC50 (H1703): 136 nM
- EC50 (LXFL-529): 57 nM
- EC50 (H292): 274 nM
- EC50 (HCC-202): 18 nM
- EC50 (KPL4): 16 nM
- EC50 (OVCAR3): 398 nM
- EC50 (H522): 10 µM
- EC50 (A2058): 9.24 µM
- EC50 (LS-180): 795 nM
- EC50 (HCC-1143): 2970 nM
